In one experiment the test system is CTGF. Nature of the experiment: CTGF mRNA expression by RT-qPCR in Huh7 cells. Format: cell-based, human. To be noted: dose-dependent. How it is done:
Huh7 and HepG2 liver cancer cells were seeded at 1×10^6 cells/dish and allowed to adhere overnight. The cells were then treated with indicated doses of compounds in medium for 24 hours. The cells were then harvested, and total RNA was purified using the Aurum total RNA mini kit (Bio-Rad #732-6820) according to the manufacturer's instructions. Complementary DNA was synthesized from 500 ng total RNA template by iScript reverse transcription kit (Bio-Rad #1725037) according to the manufacturer's instructions. Real-time PCR reactions utilized 60 ng cDNA and PrimePCR primers from Bio-Rad (Unique Assay ID: human GAPDH-qHsaCEP0041396, human CTGF-qHsaCEP0024255, human CYR61-qHsaCEP0024230) designed for SYBR Green gene expression analysis (Bio-Rad #1726270). All reactions were carried out in triplicate using Quant Studio 3 PCR system (Applied Biosystems). Relative gene expression level was quantified via ΔΔCt method by using GAPDH as an endogenous reference.

For another experiment, the system named is HepG2 cells. The experiment is described as follows: HepG2 cell growth inhibition. Format: cell-based. Particulars: Homo sapiens, FIG. 25A.
A further experiment deals with HB tumors. Nature of the experiment: Murine hepatoblastoma (HB) model, HDTV injection of S127A-YAP1 and ΔN90-β-catenin. The format is in vivo, C57BL6 mice. How it is done:
Using this model, the inhibitory effect of YAP inhibitor compound 22 on HB development was examined. In brief, following HDTV injection, the co-expression of constitutively active S127A-YAP1 and ΔN90 deletion-mutant β-catenin (ΔN90-β-catenin) via Sleeping Beauty-mediated somatic integration led to HB development in mouse livers. Plasmids carrying T3EF1α-YAPS127A (20 μg), pCMV-sleeping beauty transposase (SB, 0.8 μg), and pT3-EF1α-ΔN90-β-catenin (20 μg) were extracted using the Endotoxin-Free Maxiprep kit (Qiagen), diluted in 2 ml 0.9% sodium chloride solution, and injected via hydrodynamic tail vein injection (HDTV) into C57BL6 mice (6 week-old, body weight of 20 g). compound 22 or mock control (twice a week for three months, IP injection) were applied two weeks post the HDTV injection until two days before sacrifice. Low dose group received […] body weight and high dose group received […] body weight.
Tissues harvested from mice were fixed in 4% paraformaldehyde PBS solution for 24 hours, embedded in paraffin, and sectioned (6 μm). Standard staining protocols were performed for IHC using an ABC kit from Vector lab (Vector Laboratories, Inc., CA). The primary antibody was mouse anti-Ki67 antibody (catalogNCL-L-Ki67-MM1, 1:100 dilution) from Leica Biosystems (Deer Park, IL). Stained sections were detected using a microscope (Leica, Germany).
For drug assessment in the murine HB model, plasmids carrying T3EF1α-YAPS127A (20 μg), pCMV-sleeping beauty transposase (SB, 0.8 μg), and pT3-EF1α-ΔN90-β-catenin (20 μg) from Addgene (Watertown, MA) were used. The plasmids were extracted using the Endotoxin-Free Maxiprep kit (Qiagen, Redwood City, CA), diluted in 2 ml 0.9% sodium chloride solution, and injected via hydrodynamic tail vein injection (HDTV) into C57BL6 mice (n=15, 6 week old). Three weeks post the HDTV injection, compound 22 ([…] body weight) or mock control were applied twice a week for total 9 weeks via IP injection. Two days post last drug treatment, mice were euthanized and tumor tissues were subjected to molecular and histological characterizations.

In a further experiment the target is TEAD2-YBD C380S (Homo sapiens, UniProt Q15562, C380S). Nature of the experiment: Intact protein mass spectrometry, TEAD2-YBD C380S variant. Format: binding. To be noted: 15 hours. The text has this:
To substantiate the covalent interaction between Compound 22 and TEAD2-YBD, intact mass spectrometry was employed to monitor the protein's mass change upon binding with the compound.
Human TEAD2-YBD (217-447) (TEAD2_HUMAN, UniProtKB Q15562) was expressed and purified as previously described.^79 To eliminate endogenous palmitoylation, Cys380Ser mutant (TEAD2-C380S) was generated and purified using the same protocol. [00392]hTEAD2 was expressed, purified, and deacylated as reported.^52 Briefly, the yap-binding domain (YBD) of […] was cloned in pET28a vector with the N terminal 6x His tag. The recombinant protein was induced at 16 ° C using 0.2 mM isopropyl bD-1-thiogalactopyranoside (IPTG) for 10 h for overexpression in Escherichia coli strain BL2 (DE3) CodonPlus competent cells (Invitrogen). Then cells were harvested, followed by lysis and the supernatant was loaded onto the HisTrap FF column (GE Healthcare). The hTEAD4-YBD was eluted with elution buffer (50 mM Hepes 8.0, 300 mM NaCl, 10% Glycerol, 1 mM TCEP, 125 mM imidazole). To eliminate the endogenous fatty acid, the protein was incubated with 0.2 mM hydroxylamine for 2 h and further purified through gel filtration chromatography in the final buffer (25 mM Hepes pH 8.0, 100 mM NaCl, 1 mM TCEP, and 5% glycerol). Collected fractions were concentrated to 5 mg/mL and flash frozen for further use. […]

The values that follow come from patent publication US20260337177A1, “TEAD CORE INHIBITORS FOR CANCER THERAPEUTICS” (University of Florida Research Foundation, Incorporated, priority 2023, published 2026).

pIC50: −log10 of the molar value.

Chain of TEAD2-YBD C380S (Q15562 217-447 C380S): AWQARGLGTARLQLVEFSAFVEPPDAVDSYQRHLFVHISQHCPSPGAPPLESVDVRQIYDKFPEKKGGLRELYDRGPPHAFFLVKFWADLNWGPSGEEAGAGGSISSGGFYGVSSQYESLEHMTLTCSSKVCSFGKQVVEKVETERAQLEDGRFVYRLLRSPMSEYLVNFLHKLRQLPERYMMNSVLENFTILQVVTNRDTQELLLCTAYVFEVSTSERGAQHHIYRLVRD

`O=C(CCl)c1c[nH]c2cc(Cl)c(OCc3cccc(C(F)(F)F)c3)cc12` [Compound 22, 2-chloro-1-(6-chloro-5-((3-(trifluoromethyl)benzyl)oxy)-1H-indol-3-yl)ethan-1-one]: the “CTGF mRNA expression, Huh7” value in the experiment with CTGF is “suppressed”; with CTGF (listed as compound 22), “significantly inhibited”. Further, in the experiment with HepG2 cells, the pIC50 was 5.62. Moreover, the “HB tumors, occurrence and size” value in the experiment on HB tumors (25 mg/kg body weight, twice a week for 9 weeks, IP) is “notable reduction in both the occurrence and size of HB tumors”. In addition, the “Number of proliferating cells (IHC)” value with HB tumors (25 mg/kg, Cyclin D1 / Ki67 (FIG. 23B)) was “decreased number of proliferating cells”. In addition, the “Ccnd1, CTGF, Cyr61, Afp, and Gpc3 mRNAs in livers” value in the experiment with HB tumors (real time qRT-PCR, 25 mg/kg) was “lower levels”. The “CTGF and Cyr61 proteins in livers” value in the experiment on HB tumors (western blotting, 25 mg/kg) was “decreased CTGF and Cyr61”. For the same compound, on TEAD2-YBD C380S, the “Mass shift of TEAD2-YBD C380S variant” value is on record as “absence of a mass shift”.
